The test system of data set [1] is miR-29b. The following applies: cited from earlier work.
The next data set relates to AML cell lines. The settings on record: cited from earlier work.
A further data set relates to AML. Kind of data set: Clinical response. The format is in vivo, human. The settings on record: of 13 patients enrolled, AR-42 followed by decitabine; responses all in DL3.
The nature of data set [2]: Plasma pharmacokinetics of AR-42 in AML patients. The settings on record: for Tmax: median (SD). The format is in vivo, human.
The nature of data set [3]: Toxicity and dose limiting toxicity. The following applies: for dose limiting toxicities (DLTs): cycle 1. The format is in vivo, human.
In data set [4] the test system is miR-29b.
The subject of the next data set is cancer cells. The settings on record: cited from earlier work.
The conditions of data set [5]: patients with relapsed multiple myeloma; cited from earlier work.
For data set [6] the following is noted: single agent vorinostat; cited from earlier work.
For data set [7] the following is noted: single agent panobinostat; cited from earlier work.
Setting [8] is: 20 mg (day 1, 3, 5), Day 1, cycle 1, plasma, geometric mean (SD).
Where [9] appears, read: 20 mg (day 1, 3, 5), Day 5, cycle 1, plasma, geometric mean (SD).
Where [10] appears, read: 40 mg (day 1, 3, 4, 5), Day 1, cycle 1, plasma, geometric mean (SD).
The mark [11] stands for this setting: 40 mg (day 1, 3, 4, 5), Day 5, cycle 1, plasma, geometric mean (SD).
[12] abbreviates: 40 mg (day 1, 3, 5), Day 1, cycle 1, plasma, geometric mean (SD).
Setting [13] is: 40 mg (day 1, 3, 5), Day 5, cycle 1, plasma, geometric mean (SD).
[14] abbreviates: AR-42 followed by decitabine, all dose levels, 13 AML patients.

One may read the Cmax as the maximum level reached in the sampled fluid or tissue.

Read-outs that look alike come from different tables or passages of the source.

As to AR-42, the miR-29b expression entry with miR-29b [1] (AML cells, 1 μM AR-42, after 24 h) is given as “miR-29b induction”. The miR-29b expression result in the data set with miR-29b [1] (Kasumi-1 AML cells, in vitro) is on record as “upregulated”. Further, the miR-29b transcription result in the data set on miR-29b [1] (in vitro) is “increase”. In the data set with AML cell lines (AML cell lines), the apoptosis entry was “dose dependent apoptosis”; the “effect on cell cycle” value was “cell cycle arrest at both S and G2/M phases”. The anti-leukemic activity entry in the data set with AML cell lines (sequential administration of AR-42 followed by decitabine, compared to either drug alone) was “stronger anti-leukemic activity”. Moreover, the “number of patients who achieved a CRi” value in the data set with AML is reported as 2. For the same molecule, in data set [2] (setting [8]), the “AUC0–4” value is on record as 1.59 (2.13) μM h, the “AUC0–∞” value is 1.77 (2.34) μM h, the “Cl/F (apparent oral clearance)” value is listed as 36.11 (114.88) L/h and the T1/2 is on record as 7.36 (0.42) h. Moreover, the “Vz/F (apparent volume of distribution)” value in data set [2] (setting [8]) is 381.33 (1238.57) L. Besides, in data set [2] (20 mg (day 1, 3, 5), Day 1, cycle 1, plasma), the Tmax is given as 2.00 (1.32) h. Also, in data set [2] (setting [9]), the “AUC0–4” value is on record as 4.19 (0.54) μM h, the “AUC0–∞” value was 4.63 (0.71) μM h, the “Cl/F (apparent oral clearance)” value is 13.84 (2.18) L/h and the Cmax was 350 nM. For the same molecule, in data set [2] (setting [9]), the T1/2 is listed as 6.91 (1.11) h and the “Vz/F (apparent volume of distribution)” value is 137.94 (14.39) L. For the same molecule, the Tmax in data set [2] (20 mg (day 1, 3, 5), Day 5, cycle 1, plasma) is listed as 2.00 (1.32) h. In addition, in data set [2] (setting [10]), the “AUC0–4” value is given as 11.33 (3.54) μM h, the “AUC0–∞” value is reported as 12.22 (4.24) μM h, the “Cl/F (apparent oral clearance)” value is 10.48 (2.98) L/h and the Cmax came to 1010 nM. For the same molecule, in [2] (setting [10]), the T1/2 was 7.63 (1.14) h and the “Vz/F (apparent volume of distribution)” value is 120.53 (35.87) L. Further, the Tmax in [2] (40 mg (day 1, 3, 4, 5), Day 1, cycle 1, plasma) is given as 2.00 (2.36) h. Also, in data set [2] (setting [11]), the “AUC0–4” value is listed as 11.13 (3.36) μM h, the “AUC0–∞” value is listed as 14.42 (7.91) μM h, the “Cl/F (apparent oral clearance)” value was 8.88 (3.23) L/h and the Cmax came out at 960 nM. Also, in data set [2] (setting [11]), the T1/2 is 9.98 (6.79) h and the “Vz/F (apparent volume of distribution)” value was 127.81 (54.36) L. In data set [2] (40 mg (day 1, 3, 4, 5), Day 5, cycle 1, plasma), the Tmax is listed as 4.00 (2.60) h. Moreover, in data set [2] (setting [12]), the “AUC0–4” value is given as 7.20 (1.06) μM h, the “AUC0–∞” value was 7.90 (1.10) μM h, the “Cl/F (apparent oral clearance)” value is listed as 16.22 (2.15) L/h and the concentration peaked (Cmax) at 710 nM. Also, in data set [2] (setting [12]), the T1/2 is recorded as 6.63 (0.29) h and the “Vz/F (apparent volume of distribution)” value is listed as 155.67 (27.03) L. Further, the Tmax in [2] (40 mg (day 1, 3, 5), Day 1, cycle 1, plasma) is given as 2.00 (1.15) h. For the same molecule, in data set [2] (setting [13]), the “AUC0–4” value is recorded as 6.94 (0.64) μM h, the “AUC0–∞” value was 7.71 (1.10) μM h, the “Cl/F (apparent oral clearance)” value is given as 16.61 (2.22) L/h and the Cmax amounted to 860 nM. For the same molecule, in data set [2] (setting [13]), the T1/2 was 6.93 (1.26) h and the “Vz/F (apparent volume of distribution)” value is recorded as 166.11 (9.73) L. The Tmax in data set [2] (40 mg (day 1, 3, 5), Day 5, cycle 1, plasma) is recorded as 1.50 (0.29) h. Further, the Cmax in data set [2] (read-out: Cmax values, DL1, days 1 and 5) was 150 to 350 nM. The Cmax in [2] (read-out: Cmax values, DL2, days 1 and 5) lay in the range of 710 to 860 nM. For the same molecule, the Cmax in data set [2] (read-out: Cmax values, DL3, days 1 and 5) was 960 to 1010 nM. Further, the “patients with worsening hypertension” value in data set [3] (AR-42 followed by decitabine, 13 AML patients) stood at 4. Further, in data set [3] (setting [14]), the “Number of Patients with grade ≥ 3 in cycles 1 and 2: Alanine aminotransferase increased” value came to 1; the “Number of Patients with grade ≥ 3 in cycles 1 and 2: Alkalosis” value was found to be 1; the “Number of Patients with grade ≥ 3 in cycles 1 and 2: Aspartate aminotransferase increased” value was found to be 2; the “Number of Patients with grade ≥ 3 in cycles 1 and 2: Blood bilirubin increased” value amounted to 1. In addition, in data set [3] (setting [14]), the “Number of Patients with grade ≥ 3 in cycles 1 and 2: Cardiac troponin increased” value stood at 1; the “Number of Patients with grade ≥ 3 in cycles 1 and 2: Catheter-related infection” value was determined as 2; the “Number of Patients with grade ≥ 3 in cycles 1 and 2: Fall” value came to 1; the “Number of Patients with grade ≥ 3 in cycles 1 and 2: Febrile neutropenia” value stood at 9. In addition, in [3] (setting [14]), the “Number of Patients with grade ≥ 3 in cycles 1 and 2: Heart failure” value came out at 1; the “Number of Patients with grade ≥ 3 in cycles 1 and 2: Hyperglycemia” value was found to be 3; the “Number of Patients with grade ≥ 3 in cycles 1 and 2: Hypertension” value is reported as 4; the “Number of Patients with grade ≥ 3 in cycles 1 and 2: Hyperuricemia” value is recorded as 1. Moreover, in [3] (setting [14]), the “Number of Patients with grade ≥ 3 in cycles 1 and 2: Hypoalbuminemia” value is 1; the “Number of Patients with grade ≥ 3 in cycles 1 and 2: Hypokalemia” value amounted to 3; the “Number of Patients with grade ≥ 3 in cycles 1 and 2: Hyponatremia” value came out at 5; the “Number of Patients with grade ≥ 3 in cycles 1 and 2: Hypophosphatemia” value is recorded as 2. Further, in data set [3] (setting [14]), the “Number of Patients with grade ≥ 3 in cycles 1 and 2: Hypotension” value came to 2; the “Number of Patients with grade ≥ 3 in cycles 1 and 2: Hypoxia” value is reported as 6; the “Number of Patients with grade ≥ 3 in cycles 1 and 2: Lung infection” value is 5; the “Number of Patients with grade ≥ 3 in cycles 1 and 2: Rash maculo-papular” value is 1. In [3] (setting [14]), the “Number of Patients with grade ≥ 3 in cycles 1 and 2: Respiratory failure” value was determined as 1; the “Number of Patients with grade ≥ 3 in cycles 1 and 2: Sepsis” value was determined as 3; the “Number of Patients with grade ≥ 3 in cycles 1 and 2: Sinus tachycardia” value was determined as 1; the “Number of Patients with grade ≥ 3 in cycles 1 and 2: Syncope” value is on record as 1. Besides, the “dose limiting toxicities (DLTs)” value in [3] (DL1: AR-42 20 mg daily days 1, 3, 5, then decitabine, 3 patients) was “no DLTs”. Moreover, in data set [3] (DL2: AR-42 40 mg daily days 1, 3, 5, then decitabine, 3 patients), the “dose limiting toxicities (DLTs)” value is on record as “no DLTs”. In addition, the “dose limiting toxicities (DLTs)” value in data set [3] (DL3: AR-42 40 mg daily days 1, 3, 4, 5, then decitabine) was “One DLT of polymicrobial sepsis and multi-organ failure”. Further, the “patients who also experienced a grade 3 or 4 infection” value in data set [3] (of the six patients with neutropenia in cycle 1) is recorded as 4. Further, the cardiac toxicities result in data set [3] (patients treated with AR-42) was “minimal cardiac toxicities”. Also, the “increase of at least 100% in miR-29b expression” value in the data set with miR-29b [4] (DL1: AR-42 20 mg days 1, 3, 5, day 5 of cycle 1 over baseline) is recorded as “not observed”. In the data set with miR-29b [4] (DL2: AR-42 40 mg days 1, 3, 5, day 5 of cycle 1 over baseline), the “increase in miR-29b expression of at least 100%” value is recorded as “not observed”. Further, the “increase in miR-29b expression” value in the data set on miR-29b [4] (DL3: AR-42 40 mg days 1, 3, 4, 5, day 5 of cycle 1 over baseline) is given as “not observed”. The “doubling in either the mature or primary miR at day 5 prior to decitabine administration” value in the data set on miR-29b [4] (all dose levels, current schedule) is given as “did not observe a doubling”. In addition, in the data set on miR-29b [4] (human, in vivo), the “correlation between miR-29b ΔΔCT values and Cmax” value is listed as “weak correlation”. Also, the IC50 result in the data set with cancer cells was “submicromolar”.
`Cn1cc(CNCC2CCN(c3ncc(C(=O)NO)cn3)CC2)c2ccccc21` [quisinostat]: in [5], the cardiac events result was “grade 3 and 4 cardiac events”.
In the case of `O=C(CCCCCCC(=O)Nc1ccccc1)NO` [vorinostat], the “patients who experienced fatigue” value in [6] is on record as 52%.
With `Cc1[nH]c2ccccc2c1CCNCc1ccc(/C=C/C(=O)NO)cc1` [panobinostat], the “patients who experienced fatigue” value in data set [7] was 47.4%.
